Patent US8193191B2, “Urotensin II receptor antagonists” (Janssen Pharmaceutica N.V., priority 2006, dated 2012)
pIC50: −log10 of the molar value. Like-named read-outs stand apart in the source and are kept apart here.

Target: T1, rat GPR14 (U-II receptor) (Rattus norvegicus, UniProt P49684)
T1 construct: expressed in transfected cells
T1 sequence (P49684 1-386): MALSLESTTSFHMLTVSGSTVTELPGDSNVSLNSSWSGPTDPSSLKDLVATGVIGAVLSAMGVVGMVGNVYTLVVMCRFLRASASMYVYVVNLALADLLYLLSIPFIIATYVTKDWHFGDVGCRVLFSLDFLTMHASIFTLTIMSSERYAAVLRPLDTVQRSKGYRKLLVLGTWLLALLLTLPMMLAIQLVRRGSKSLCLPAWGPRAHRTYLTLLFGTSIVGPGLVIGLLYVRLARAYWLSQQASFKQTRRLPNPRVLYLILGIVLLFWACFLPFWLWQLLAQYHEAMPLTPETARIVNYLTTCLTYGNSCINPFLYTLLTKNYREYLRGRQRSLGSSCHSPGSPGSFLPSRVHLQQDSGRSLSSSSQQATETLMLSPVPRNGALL
Assay: Rat UII Calcium Mobilization FLIPR Assay
Assay type: cell-based
Details: for inhibition at 10 µM / inhibition at 50 µM: CHO, 5 min, agonist-induced Ca2+ mobilization (FLIPR), CHO cells with rat UII receptor; for inhibition at 10 µM: 10 μM compound, read-out: % I @ 10; for inhibition at 50 µM: 50 μM compound, read-out: % I @ 50
Text: To derive these cells, the complete coding sequence of rat U-II (Genbank Accession No. U32673) was amplified by nested PCR from rat heart marathon-Ready cDNA. […] The PCR products were cloned into pcDNA3 (Invitrogen) digested with EcoR I and Xba I. Clones containing rat U-II receptor were verified by complete sequencing of the U-II receptor insert to ensure a lack of PCR-introduced errors. The constructed vector was transfected into CHO cells by using lipofectamine (GIBCO BRL). CHO cells with high expression of rat U-II receptor were selected and established as stable cell lines by using G418. CHO cells were seeded at 25,000 cells per well into 96-well, black-wall, clear-bottom microtiter plates 24 h before assay. Cells in culture media (DMEM/F12 containing 15 mM HEPES, L-glutamine, pyridoxine hydrochloride; 10% fetal bovine serum; 1 mg/mL G418 sulfate; antibiotic-antimycotic; pH 7.4) were loaded with proprietary dye, from the FLIPR Calcium Assay Kit (Molecular Devices), prepared in assay buffer (Hanks Balanced Salts Solution, 20 mM HEPES, 0.1% BSA, 2.5 mM probenecid, pH 7.4), and incubated for 1 h at 37° C. Calcium mobilization determinations were performed at room temperature (23° C.).

[1] = Inhibition of Acetyl-cyclic[Cys-Phe-Trp-Lys-(2-Nal)-Cys]-NH2 induced Ca2+ mobilization (FLIPR) in CHO cells transfected with rat UII receptor, read-out: IC50
[2] = average value for the compound tested, read-out: Rat UII FLIPR Average IC50

inhibition at 10 µM [%]	inhibition at 50 µM [%]	pIC50 [1]	pIC50 [2]	SMILES
55	78	5.00		COc1ccc(CN2C(=O)c3cccc(N4C[C@@H](C)N(Cc5ccccc5)[C@@H](C)C4)c3C2=O)cc1OC [Cpd 42, (3R,5S)-4-(4-benzyl-3,5-dimethyl-piperazin-1-yl)-2-(3,4-dimethoxy-benzyl)-isoindole-1,3-dione]
42	79	4.92		COc1ccc(CN2C(=O)c3cccc(N4CCN(Cc5cccc(Cl)c5)CC4)c3C2=O)cc1OC [Cpd 44, 4-[4-(3-chloro-benzyl)-piperazin-1-yl]-2-(3,4-dimethoxy-benzyl)-isoindole-1,3-dione]
48	54	4.85		COc1ccc(CN2C(=O)c3cccc(N4CCN(Cc5cc(F)cc(F)c5)CC4)c3C2=O)cc1OC [Cpd 46, 4-[4-(3,5-difluoro-benzyl)-piperazin-1-yl]-2-(3,4-dimethoxy-benzyl)-isoindole-1,3-dione]
43	65	4.74		COc1ccc(CN2C(=O)c3cccc(N4C[C@@H](C)N(C(C)c5ccccc5)[C@@H](C)C4)c3C2=O)cc1OC (stereo partly drawn) [Cpd 51, (3R,5S)-2-(3,4-dimethoxy-benzyl)-4-[3,5-dimethyl-4-(1-phenyl-ethyl)-piperazin-1-yl]-isoindole-1,3-dione]
17	71	4.74		COc1cc(CN2C(=O)c3cccc(N4CCN(C(C)C)CC4)c3C2=O)cc(OC)c1OC [Cpd 52, 4-(4-isopropyl-piperazin-1-yl)-2-(3,4,5-trimethoxy-benzyl)-isoindole-1,3-dione]
21	68	4.60		COc1ccc(CN2CCN(c3cccc4c3C(=O)N(Cc3ccc(OC)c(OC)c3)C4=O)CC2)cc1OC [Cpd 56, 2-(3,4-dimethoxy-benzyl)-4-[4-(3,4-dimethoxy-benzyl)-piperazin-1-yl]-isoindole-1,3-dione]
19	58	4.52		COc1ccc(CN2C(=O)c3cccc(N4CCN(Cc5ccc(Cl)cc5)CC4)c3C2=O)cc1OC [Cpd 57, 4-[4-(4-chloro-benzyl)-piperazin-1-yl]-2-(3,4-dimethoxy-benzyl)-isoindole-1,3-dione]
8	52	4.38		COc1cc(CN2C(=O)c3cccc(N4CCN(CC(C)C)CC4)c3C2=O)cc(OC)c1OC [Cpd 60, 4-(4-isobutyl-piperazin-1-yl)-2-(3,4,5-trimethoxy-benzyl)-isoindole-1,3-dione]
99	102	6.14		COc1ccc(CN2C(=O)c3c(C=CS(C)(=O)=O)ccc(N4CCN([C@H](C)c5ccccc5)CC4)c3C2=O)cc1OC [Cpd 62, 2-(3,4-dimethoxy-benzyl)-4-(2-methanesulfonyl-vinyl)-7-[4-(1R)-(1-phenyl-ethyl)-piperazin-1-yl]-isoindole-1,3-dione]
			5.33	COc1ccc(CN2C(=O)c3cccc(N4CCN(CC(C)C)CC4)c3C2=O)cc1OC [Cpd 82, 2-(3,4-dimethoxy-benzyl)-4-(4-isobutyl-piperazin-1-yl)-isoindole-1,3-dione]
			5.55	COc1ccc(CN2C(=O)c3cccc(N4CCN(Cc5ccccn5)CC4)c3C2=O)cc1OC [Cpd 84, 2-(3,4-dimethoxy-benzyl)-4-(4-pyridin-2-ylmethyl-piperazin-1-yl)-isoindole-1,3-dione]

Second part, the compound before the results:

SMILES	inhibition at 10 µM [%]	inhibition at 50 µM [%]	pIC50 [1]	pIC50 [2]
O=C1c2cccc(N3CCN(Cc4ccccc4)CC3)c2C(=O)N1CCc1ccncc1 [Cpd 43, 4-(4-benzyl-piperazin-1-yl)-2-(2-pyridin-4-yl-ethyl)-isoindole-1,3-dione]	50	97	5.00	
COc1cc(CN2C(=O)c3cccc(N4CC5CCC(C4)N5Cc4ccccc4)c3C2=O)cc(OC)c1 [Cpd 45, 4-(8-benzyl-3,8-diaza-bicyclo[3.2.1]oct-3-yl)-2-(3,5-dimethoxy-benzyl)-isoindole-1,3-dione]	55	40	4.89	
O=C1c2cccc(N3CCN(Cc4ccccc4)CC3)c2C(=O)N1CCCn1ccnc1 [Cpd 47, 4-(4-benzyl-piperazin-1-yl)-2-(3-imidazol-1-yl-propyl)-isoindole-1,3-dione]	25	78	4.82	
COc1ccc(CN2C(=O)c3cccc(NCCNCc4ccccc4)c3C2=O)cc1OC [Cpd 48, 4-(2-benzylamino-ethylamino)-2-(3,4-dimethoxy-benzyl)-isoindole-1,3-dione]	41	78	4.80	
COc1ccc(C(c2ccccc2)N2C(=O)c3cccc(N4CCN([C@H](C)c5ccccc5)CC4)c3C2=O)cc1OC (stereo partly drawn) [Cpd 49, 2-[(3,4-dimethoxy-phenyl)-phenyl-methyl]-4-[4-(1R)-(1-phenyl-ethyl)-piperazin-1-yl]-isoindole-1,3-dione]	58	61	4.80	
COc1ccc(CN2C(=O)c3cccc(C4=CC5CCC(C4)N5Cc4ccccc4)c3C2=O)cc1OC (stereo not drawn) [Cpd 50, 4-(8-benzyl-8-aza-bicyclo[3.2.1]oct-2-en-3-yl)-2-(3,4-dimethoxy-benzyl)-isoindole-1,3-dione]	42	77	4.77	
COc1ccc(CN2C(=O)c3cccc(OCCN(C)Cc4ccccc4)c3C2=O)cc1OC [Cpd 53, 4-[2-(benzyl-methyl-amino)-ethoxy]-2-(3,4-dimethoxy-benzyl)-isoindole-1,3-dione]	22	78	4.68	
COc1ccc(CN2C(=O)c3cccc(OCCNCc4ccccc4)c3C2=O)cc1OC [Cpd 54, 4-(2-benzylamino-ethoxy)-2-(3,4-dimethoxy-benzyl)-isoindole-1,3-dione]	15	81	4.68	
Cc1c(CN2C(=O)c3cccc(N4CCN(Cc5ccccc5)CC4)c3C2=O)cnn1C [Cpd 55, 4-(4-benzyl-piperazin-1-yl)-2-(1,5-dimethyl-1H-pyrazol-4-ylmethyl)-isoindole-1,3-dione]	12	75	4.62	
COc1cc(CN2C(=O)c3cccc(N4CCN(Cc5ccccc5)CC4)c3C2=O)ccn1 [Cpd 58, 4-(4-benzyl-piperazin-1-yl)-2-(2-methoxy-pyridin-4-ylmethyl)-isoindole-1,3-dione]	25	60	4.49	
O=C1c2cccc(N3CC4CCC(C3)N4Cc3ccccc3)c2C(=O)N1Cc1ccccn1 [Cpd 59, 4-(8-benzyl-3,8-diaza-bicyclo[3.2.1]oct-3-yl)-2-pyridin-2-ylmethyl-isoindole-1,3-dione]	11	56	4.47	
COc1ccc(N2C(=O)c3cccc(N4CC5CCC(C4)N5Cc4ccccc4)c3C2=O)cc1OC [Cpd 61, 4-(8-benzyl-3,8-diaza-bicyclo[3.2.1]oct-3-yl)-2-(3,4-dimethoxy-phenyl)-isoindole-1,3-dione]	31	49	4.32	
COc1ccc(C(CCCNS(=O)(=O)c2ccc(Cl)s2)N2C(=O)c3cccc(N4CCN([C@H](C)c5ccccc5)CC4)c3C2=O)cc1OC (stereo partly drawn) [Cpd 71, 5-chloro-thiophene-2-sulfonic acid (4-(3,4-dimethoxy-phenyl)-4-{1,3-dioxo-4-[4-(1R)-(1-phenyl-ethyl)-piperazin-1-yl]-1,3-dihydro-isoindol-2-yl}-butyl)-amide]	58	37	5.77	
COc1ccc(C(CCCNS(=O)(=O)c2cc(S(=O)(=O)c3ccccc3)cs2)N2C(=O)c3cccc(N4CCN([C@H](C)c5ccccc5)CC4)c3C2=O)cc1OC (stereo partly drawn) [Cpd 92, 4-benzenesulfonyl-thiophene-2-sulfonic acid (4-(3,4-dimethoxy-phenyl)-4-{1,3-dioxo-4-[4-(1R)-(1-phenyl-ethyl)-piperazin-1-yl]-1,3-dihydro-isoindol-2-yl}-butyl)-amide]				6.04
